Source: patent US12467035B2, “Method of differentiating mesenchymal stem cells into cardiomyocytes” (CHONNAM NATIONAL UNIVERSITY HOSPITAL, priority 2016, dated 2025)

What was measured:
[1] = test system: human bone marrow-derived mesenchymal stem cells; assay: Cell viability of mesenchymal stem cells under glucose deprivation (microscopy); format: cell-based; settings: glucose-free medium, 3 μM apicidin (12 mM lactic acid in AC/Lac12)
Experimental: To confirm the status changes of mesenchymal stem cells in glucose deprivation conditions, an existing culture medium was replaced with a glucose-free medium, and then cells were observed after a certain period of time. At this time, cells treated with glucose or lactic acid (the case of cells incubated in a glucose-free medium, the case of cells incubated in a glucose-free medium containing lactic acid, the case of cells incubated in a glucose-free medium containing apicidin, or the case of cells incubated in a glucose-free medium containing lactic acid and apicidin) were observed, and the results are shown in FIG. 1.
First, mesenchymal stem cells were cultured in a 6-well plate filled with high glucose DMEM (4 mM L-glutamine, 4500 mg/L glucose, sodium pyruvate, 10% FBS, 100 U/ml penicillin, 100 μg/ml streptomycin) for one day. After culture, the high glucose DMEM was removed, the mesenchymal stem cells were washed twice with a sterile phosphate-saline buffer solution, and a glucose-free medium was added to the mesenchymal stem cells. At this time, the case of cells incubated in a glucose-free medium, the case of cells incubated in a glucose-free medium containing 3 μM apicidin, and the case of cells incubated in a glucose-free medium containing 3 μM apicidin and 12 mM lactic acid are denoted as Veh, AC, and AC/Lac12, respectively. At 4, 7, 20, and 27 hours after incubation, the morphology of the cells was observed under a microscope and images were obtained.
To evaluate the effect of a culture medium on differentiation of mesenchymal stem cells into cardiomyocytes, as described in Example 1-2, mesenchymal stem cells were incubated in a glucose-free medium, in a glucose-free medium containing apicidin, or a glucose-free medium containing apicidin and lactic acid, and cell viability was determined.

[2] = test system: mesenchymal stem cells; assay: Immunocytochemistry of cardiomyocyte-specific marker proteins (GATA4, cTnI); format: cell-based, human; settings: glucose deprivation, 4 hours, immunofluorescent staining
Experimental: To confirm the expression of cardiomyocyte-specific marker proteins, immunocytochemistry was performed. First, mesenchymal stem cells were inoculated into a 12-well plate filled with a high glucose DMEM medium and cultured for 1 day. Then, the mesenchymal stem cells were incubated into a glucose-free medium (Veh), a glucose-free medium containing apicidin (AC), or a glucose-free medium containing apicidin and lactic acid (AC/Lac) for 4 hours. After incubation, the cell culture medium was removed from each sample, the mesenchymal stem cells were washed once with PBS, and subsequently the cells were fixed with 3.7% formaldehyde for 15 minutes, followed by treatment with 0.1% Triton X-100 for cell permeabilization. Normal goat serum was added and incubated for 1 hour to reduce background noise. Primary antibodies such as anti-GATA4 antibodies, anti-cTnI antibodies or anti-alpha-sarcomeric actin (a-SA) antibodies were added to the samples, followed by incubation at 4° C. overnight. Then, secondary antibodies labeled with a fluorescent dye (Alexa 488 or Alexa 594) were added, followed by incubation for 1 hour. Nuclei were stained with 4′,6-diamidino-2-phenylindole (DAPI), a fluorescent dye. The samples were mounted on slide glass for observation using a fluorescence microscope. […]

[3] = test system: mesenchymal stem cells; assay: qRT-PCR of cardiomyocyte-specific marker genes (GATA4, Nkx2.5, cTnI); format: cell-based, human; settings: glucose deprivation
Experimental: To determine the degree of differentiation of mesenchymal stem cells into cardiomyocytes by addition of apicidin and lactic acid under glucose deprivation conditions, the expression levels of cardiomyocyte-specific genes were quantitatively analyzed in the cells. More specifically, as in the method of Example 1-2, mesenchymal stem cells were incubated in each of the media for 4 or 20 hours. After incubation, the medium was removed from each sample, followed by washing once with PBS. Then, the mesenchymal stem cells were treated with TRIzol and incubated at room temperature for 10 minutes for cell lysis, and then chloroform was added thereto, followed by centrifugation. A supernatant obtained as a result of centrifugation was recovered, and total RNA was extracted. cDNA was synthesized from the total RNA using a reverse transcriptase (MMLV). Real-time PCR was performed using the synthesized cDNA as a template using a QuantiTect SYBR Green PCR kit to determine the expression levels of cardiomyocyte-specific marker genes (GATA4, Nkx2.5, and cTnI).
Changes in cardiomyocyte-specific gene expression by addition of apicidin or apicidin and lactic acid under glucose deprivation conditions were quantified by RT-PCR according to the method of Example 1-3.

In the case of apicidin, the cell death ([1]; 7 hours) is reported as “cell death was not observed”, the cell death ([1]; 20 hours) is reported as “partial cell death was observed” and the cell death ([1]; 27 hours) is reported as “cell death was significantly observed”. For the same substance, the “expression of GATA4 and cTnI, cardiomyocyte-specific proteins” value [2] was “increase in the expression”, the “expression levels of the marker genes (GATA4, Nkx2.5, cTnI)” value ([3]; 20 hours after the treatment) was “remarkably increased” and the “intracellular gene expression of three cardiomyocyte-specific markers (GATA4, Nkx2.5, and cTnI)” value ([3]; incubation 4 or 20 hours) was “significantly increased”.
